Laboratory results from PubChem BioAssay AID504765 (Sanford-Burnham Center for Chemical Genomics, 2011).
Calls of active or inactive are those of the source. How the calls were made is not given here.

What follows are compounds tested against glucose-6-phosphate dehydrogenase-6-phosphogluconolactonase (Plasmodium falciparum 3D7) (assay: PfG6PD inhibitor potency, dose response, biochemical, fluorescence intensity (AID 504765)). Settings: Recombinant PfG6PD enzyme, fluorescence intensity (NADPH).
`C=CCOc1ccc(CNc2ccc3[nH]c(=O)[nH]c3c2)cc1OC` gave an IC50 of 6.61 µM.
For `COc1cccc(CNc2ccc3[nH]c(=O)[nH]c3c2)c1OCc1ccc(F)cc1`, the IC50 was “inactive”.
`CC1CN(c2ccccc2)NC1=O` (stereo not given) was tested, and the IC50 was 2.34 µM.
`CCOC(=O)Nc1ccc(NCc2ccc(F)cc2)nc1N` gave an IC50 of 3 µM.
`CC1=CC(=NOC(=O)/C=C/c2ccccc2)C=C(C)C1=O` showed an IC50 of 13.9 µM.
`Cc1ccc(NC(=O)Cn2sc3nc(C)cc(C)c3c2=O)c(Cl)c1` was tested, and the IC50 was 2.09 µM.
With `COc1cc(N)c2ncsc2c1` the IC50 was 15.5 µM.
`O=c1c2ccccc2sn1-c1nccs1` was tested, and the IC50 was 1.69 µM.
With `COc1cc(-c2nnc3n2N=C(c2ccccc2)CS3)cc(OC)c1OC` the IC50 was 3.88 µM.
`O=C1NC(=S)NC(=O)C1=Cc1ccc(Br)s1` was tested, and the IC50 was 7.9 µM.
Compound `Cc1ccc(/C=C/C(=O)NCc2ccc(S(N)(=O)=O)cc2)o1` has an IC50 of 5.78 µM.
For `NCCNc1ccc(C(=O)N2c3ccccc3Sc3ccccc32)cc1[N+](=O)[O-]`, the IC50 was 13.3 µM.
`O=c1c2ccccc2sn1-c1ccc(Cl)cc1` gave an IC50 of 2.83 µM.
For `CCNc1cc2c(cc1O)CCC1C2CCC2(C)C(O)CCC12` (stereo not given), the IC50 was “inactive”.
`C[C@]12CC[C@@H]3c4cc(O)c(O)cc4CC[C@H]3[C@@H]1CC[C@@H]2O` was tested, and the IC50 was “inactive”.
`Cc1cc(O)c(C(C)C)cc1N=Cc1ccc([N+](=O)[O-])cc1` was tested, and the IC50 was 6.99 µM.
In the case of `O=c1c2ccccc2sn1-c1ccccc1F`, the IC50 is reported as 6.48 µM.
`N#Cc1ccc(Oc2cccc3cccnc23)c([N+](=O)[O-])c1` was tested, and the IC50 was 5.66 µM.
With `Cc1cc(C)c2c(=O)n(CC(=O)Nc3ccc(Cl)cc3)sc2n1` the IC50 was 2.51 µM.
In the case of `Cc1ccc(-n2c(N)c(C(=O)N3CCN(C)CC3)sc2=S)cc1`, the IC50 is reported as 16 µM.
`O=C(O)c1ccc(-n2c(-c3cc(-c4ccco4)[nH]n3)n[nH]c2=S)cc1` was tested, and the IC50 was “inactive”.
With `Cc1cccc(-n2c(=S)[nH]c3sc4c(c3c2=O)CCc2ccccc2-4)c1` the IC50 was “inactive”.
`Cc1ccccc1-n1sc2cc(F)ccc2c1=O` was tested, and the IC50 was 2.15 µM.
`Cc1ccc(/C=C/C(=O)Nc2ccc([N+](=O)[O-])c(NC(=O)/C=C/c3ccc(C)o3)c2)o1` gave an IC50 of 4.84 µM.
`COc1cc(/C=N/Nc2nncn2N)ccc1OCc1c(C)no[n+]1[O-]` showed an IC50 of 8.92 µM.
Work on `CCc1cc(-c2n[nH]c(C)c2-c2ccccc2Cl)c(O)cc1OC` yielded an IC50 of 7.52 µM.
`COc1ccc(Cl)cc1NC(=O)c1cccc([N+](=O)[O-])c1O` was tested, and the IC50 was 8.87 µM.
Compound `O=C(Cc1ccccc1)NCC(=O)OCC(=O)c1ccc([N+](=O)[O-])cc1` has an IC50 of 10.6 µM.
In the case of `Clc1ccc(N=c2ssnc2Cl)nc1`, the IC50 is reported as “inactive”.
`CCOc1ccccc1NS(=O)(=O)c1c(C)noc1C` was tested, and the IC50 was 9.95 µM.
`CCCCCCCCn1sccc1=O` gave an IC50 of 3.75 µM.
In the case of `CC1=NOC(=O)/C1=C\c1ccc(-c2ccccc2Br)o1`, the IC50 is reported as “inactive”.
For `Cc1ccc2nc(SCC(=O)N/N=C/c3ccco3)cc(C)c2c1`, the IC50 was 10.3 µM.
`Cc1cccc(C2(c3cccc(C)c3)CC2C(=O)Nc2ccc([N+](=O)[O-])cc2O)c1` (stereo not given) was tested, and the IC50 was 13.2 µM.
`Cc1nn(-c2ccccc2)c(Cl)c1/C=N/Nc1nc2ccccc2n1C` was tested, and the IC50 was 13.3 µM.
`CC1=CC(C)(C)Nc2ccc(OC(=O)CN3C(=O)c4cccc5cccc(c45)C3=O)cc21` gave an IC50 of 6.28 µM.
With `Cc1c(Cl)c([N+](=O)[O-])nn1Cc1ccc(C(=O)N/N=C\c2cccc(Br)c2)o1` the IC50 was 9.37 µM.
For `Cc1nc2ccc(Nc3nc4cc(S(=O)(=O)N5CCOCC5)ccc4o3)cc2s1`, the IC50 was “inactive”.
Compound `O=C(O)c1cccc(N2C(=O)C=CC2=O)c1` has an IC50 of 15.5 µM.
For `CN1C(=O)CSc2ccc(NC(=O)N3CCc4ccccc43)cc21`, the IC50 was 15.2 µM.
In the case of `Cc1ccc(C(=O)Nc2nnc(S(=O)(=O)N3CCC(C)CC3)s2)cc1`, the IC50 is reported as “inactive”.
In the case of `OCCN1CCN(C(=S)c2ccc(-c3ccccc3)cc2)CC1`, the IC50 is reported as 19.6 µM.
`O=C(Nc1ccccc1C(=O)N/N=C/c1ccco1)c1ccccc1Cl` was tested, and the IC50 was 10.6 µM.
`Cc1ccccc1N/C(SCc1cccc(Br)c1)=C(/C#N)C(N)=O` gave an IC50 of 5.9 µM.
Compound `Cc1ccc(C)c(-n2sc3ccc(F)cc3c2=O)c1` has an IC50 of 1.24 µM.
`Cc1ccc(-c2nc(N3CCOCC3)s[n+]2-c2ccccc2)cc1` gave an IC50 of 5.65 µM.
With `C=CCSc1nc2sc3c(c2c(=O)n1CC)CCc1ccccc1-3` the IC50 was “inactive”.
`O=c1[nH]sc2cc(F)ccc12` showed an IC50 of 9.86 µM.
With `CC1(OC(=O)C2CCCC2)C(=O)C=C2C=C(c3ccsc3)N(Cc3ccc4c(c3)OCO4)C=C2C1=O` (stereo not given) the IC50 was 11.1 µM.
`COc1cc(C(=O)ON=C2C=C(C)C(=O)C(C)=C2)cc(OC)c1OC` showed an IC50 of 5.09 µM.
Compound `c1nc(SSc2ncnc3nc[nH]c23)c2[nH]cnc2n1` has an IC50 of 4.78 µM.
With `Cn1c2ccccc2c2ccc3c(c21)C(=O)C=CC3=O` the IC50 was > 80 µM (inactive).
`CCN1CCN(C(=S)c2ccc(O)cc2)CC1` was tested, and the IC50 was “inactive”.
Compound `COc1ccccc1N1CSC2=C(C#N)C(c3ccc(SC)cc3)CC(=O)N2C1` (stereo not given) has an IC50 of 10.6 µM.
In the case of `COc1cc(NCc2ccccc2O)c2ncccc2c1`, the IC50 is reported as “inactive”.
Work on `CN(C)c1cccc2c1c(NC(=O)c1ccc(Cl)cc1)nn2C` yielded an IC50 of 8.65 µM.
Compound `O=C(Cn1sc2ccccc2c1=O)Nc1ccc(Cl)cc1` has an IC50 of 3.26 µM.
Compound `O=C(O)c1cc(N2C(=O)C=CC2=O)cc(N2C(=O)C=CC2=O)c1` has an IC50 of 4.34 µM.
For `c1cc(CNc2ccc3c(c2)OCO3)ccn1`, the IC50 was “inactive”.
`Oc1ccc(/C=N/N=C(c2ccccc2)c2ccccc2)c(O)c1O` gave an IC50 of 13.6 µM.
Work on `Oc1ccc(-c2cn3c(n2)SCC3)cc1O` yielded an IC50 of 11.5 µM.
With `C=CCN=c1scc(-c2ccco2)n1/N=C/c1ccc(O)c(O)c1O` the IC50 was “inactive”.
`CCOC(=O)C1CCCN(C(=O)Cn2sc3nc(C)cc(C)c3c2=O)C1` (stereo not given) was tested, and the IC50 was 3.15 µM.
For `O=c1[nH]c(NCCO)c(N=Cc2ccccc2)c(=O)[nH]1`, the IC50 was 1.03 µM.
`Cc1ccc(NC(=O)c2cc(N3C(=O)C=CC3=O)ccc2N2CCOCC2)cc1Cl` was tested, and the IC50 was 12.2 µM.
`O=C1OC(c2ccc3ccccc3c2O)(c2ccc3ccccc3c2O)c2ccccc21` showed an IC50 of 14.5 µM.
In the case of `Cc1ccc(/C=C2\C(=O)NC(=S)N(c3ccccc3F)C2=O)s1`, the IC50 is reported as “inactive”.
`COc1c2ccoc2c(OCC=C(C)C)c2oc(=O)ccc12` was tested, and the IC50 was “inactive”.
`COc1cc(/C=C2\CC/C(=C\c3cc(OC)c(O)c(OC)c3)C2=O)cc(OC)c1O` showed an IC50 of 17.1 µM.
With `Clc1nssc1=Nc1nncs1` the IC50 was 14.3 µM.
In the case of `COc1ccc(NC2CCCN(Cc3cccc4cnccc34)C2)cc1OC` (stereo not given), the IC50 is reported as “inactive”.
Compound `Cc1nc2c(o1)C(=O)c1ccccc1C2=Nc1ccccc1` has an IC50 of 7 µM.
`COc1ccc(C(=O)Nc2sc3c(c2C(=O)O)CC(C)(C)OC3)cc1` gave an IC50 of 11 µM.
For `C[c-]1[c-](C)[c-](C)[c-](C)[c-]1C.[Fe].c1cc2nccc(N3CCCC3)[c-]2c1` (stereo not given), the IC50 was “inactive”.
For `CCC(c1ccc(O)c(O)c1)C(CC)c1ccc(O)c(O)c1` (stereo not given), the IC50 was “inactive”.
`CCOc1ccc(Cl)cc1/C=N/NC(N)=O` showed an IC50 of 12.4 µM.
`CCc1ccccc1N1CSC2=C(C#N)C(c3ccccc3F)CC(=O)N2C1` (stereo not given) was tested, and the IC50 was 9.2 µM.
Work on `N#Cc1ccc2c(=O)n(-c3ccccc3)sc2c1` yielded an IC50 of 3.86 µM.
`COc1ccc(CNC(=O)Cc2cn(C)c3ccccc23)c(OC)c1` was tested, and the IC50 was 6.8 µM.
`Cc1no[n+]([O-])c1COc1cccc(/C=N/Nc2nncn2N)c1` gave an IC50 of 6.7 µM.
Compound `Cc1nnc(SCC(=O)c2cc(C)n(-c3ccc4c(c3)OCO4)c2C)s1` has an IC50 of 7.35 µM.
`CC(C)Sc1nnc(NC(=O)c2ccc3c(c2)OCO3)s1` showed an IC50 of 4.21 µM.
In the case of `Cc1ccc(Cl)cc1NC1=C/C(=N\S(=O)(=O)c2cccs2)c2ccccc2C1=O`, the IC50 is reported as “inactive”.
With `COc1cc(NCCCn2cnc3c(OCc4ccccc4)ncnc32)cc(OC)c1OC` the IC50 was > 80 µM (inactive).
For `O=C(CNc1ccc2c(c1)OCO2)N/N=C\c1cn(Cc2ccccc2)c2ccccc12`, the IC50 was “inactive”.
For `Nn1c(CSc2nc3ccccc3o2)nnc1CSc1nc2ccccc2o1`, the IC50 was 11.5 µM.
`Cc1ccc(S(=O)(=O)SC/C=C/CSS(=O)(=O)c2ccc(C)cc2)cc1` showed an IC50 of 10.3 µM.
In the case of `O=C(Nc1nnc(S(=O)(=O)N2CCOCC2)s1)c1cccc(Br)c1`, the IC50 is reported as 5.58 µM.
Work on `O=[N+]([O-])c1ccc(Sc2cccc3cccnc23)c2cccnc12` yielded an IC50 of 16.5 µM.
`CN(C)c1ccc(C=c2c3ccccc3n3c2c2ccccc2[n+]3C)cc1` was tested, and the IC50 was 16 µM.
`Cc1cc(C)c2c(=O)n(CC(=O)Nc3cccc(F)c3)sc2n1` gave an IC50 of 1.89 µM.
In the case of `COc1cc(CNc2ccc3[nH]c(=O)[nH]c3c2)ccc1OCc1ccccc1`, the IC50 is reported as “inactive”.
`CC(C)c1cc2c(c(O)c1O)[C@@]13CCCC(C)(C)C1CC2OC3=O` (stereo not given in full) was tested, and the IC50 was 4.95 µM.
`Cc1ccc(NC(=O)c2cc(N3C(=O)C=CC3=O)ccc2N2CCOCC2)cc1` was tested, and the IC50 was 15.7 µM.
For `Oc1ccc(NCc2ccccc2OCc2ccccc2)cc1`, the IC50 was “inactive”.
Compound `O=C1NC(=O)C(=Cc2ccc(-c3ccccc3[N+](=O)[O-])o2)C(=O)N1` has an IC50 of 10.9 µM.
For `Cc1c(N=C2C=C(Br)C(=O)C(Br)=C2)c(=O)n(-c2ccccc2)n1C`, the IC50 was 7.32 µM.
For `Cc1cc(C)c2c(=N)c3ccccc3n(CCCCCCCCn3c4ccccc4c(=N)c4c(C)cc(C)nc43)c2n1`, the IC50 was 10.1 µM.
Work on `CCN(CC)c1ccc(C(=C2C=CC(=[N+](CC)CC)C=C2)c2ccc(N(CC)CC)cc2)cc1` yielded an IC50 of 10.3 µM.
In the case of `CN1CCN(C(=O)c2sc(=S)n(-c3ccccc3)c2N)CC1`, the IC50 is reported as 7.25 µM.
Compound `O=c1c2cc([N+](=O)[O-])ccc2sn1-c1ccccc1` has an IC50 of 5.27 µM.
For `CN(C)Cc1cc(O)c(CN(C)C)cc1O`, the IC50 was 2.03 µM.
With `CCOc1ccc2ccccc2c1/C=N/NC(=O)c1ccncc1` the IC50 was 3.49 µM.
With `Cc1cc(C)c2c(=O)n(CC(=O)Nc3cccc(Cl)c3C)sc2n1` the IC50 was 5.51 µM.
Work on `CNS(=O)(=O)c1ccc(-c2ccc(C=C3C(=O)NC(=O)NC3=O)o2)cc1` yielded an IC50 of 8.75 µM.
Compound `COc1cccc(-c2c(C(=O)N/N=C/c3ccc(C)s3)nnn2-c2nonc2N)c1` has an IC50 of 6.69 µM.
Work on `O=C(CN1C(=O)C2C3C=CC(C3)C2C1=O)OCC(=O)c1ccc([N+](=O)[O-])cc1` (stereo not given) yielded an IC50 of 9.71 µM.
With `Cn1cc(S(=O)(=O)CC(=O)N2CCc3ccccc32)c2ccccc21` the IC50 was “inactive”.
`Cc1ccc(-n2sc3ccccc3c2=O)cc1` gave an IC50 of 8.63 µM.
For `COC(=O)c1cc2c(n1S(=O)(=O)c1ccc(C)cc1)C(=O)C(=O)c1[nH]cc(C(=O)OCc3ccccc3)c1-2`, the IC50 was 15.8 µM.
Work on `Cc1nnc(N/N=C/c2ccc(-c3ccccc3F)o2)n1N` yielded an IC50 of 16.9 µM.
`Cc1nnc(N/N=C\c2ccc(-c3cccc(C(=O)O)c3)o2)n1N` was tested, and the IC50 was 4.75 µM.
`CCSc1nc2cc(S(=O)(=O)N3CCOCC3)ccc2o1` was tested, and the IC50 was “inactive”.
`COc1ccc(CCn2c(NN=C(C)C)nc3c2c(=O)[nH]c(=O)n3C)cc1` was tested, and the IC50 was 4.82 µM.
`[O-]/[N+](=C\c1ccccc1)c1ccc(Br)cc1` showed an IC50 of 0.84 µM.
